The subject of data set [1] is HEK293 cells. As to the kind of experiment: Pharmacological blocking of MM 1-induced calcium responses. It counts as cell-based. The conditions noted are these: MM 1 + light in calcium-free PBS. Here is the method: FIGS. 14A-14J—Mechanistic study of MM-induced ICW. (a) Schematic of possible mechanisms by which calcium can enter the cytoplasm. Prepared with Biorender.com. (b) Confocal microscope images of HEK293 cells treated with MM 1, MitoTracker Green, ER Tracker Red, and CellMask Deep Red. Scale bars are both 20 μm and apply to the images in the same row. (c-h) Calcium waves elicited by MM 1-treated cells (c) in calcium-free PBS, (d) in RR (1 μM), (e) in Gd^3+ (50 μM), (f) after treatment of cells with Th (1 μM), (g) in Ry (100 μM), (h) in XeC (25 μM), (i) in U-73 (10 μM), (j) after pre-treatment of cells with Cyto D (2 μM). The solid line represents the calcium profiles averaged from six independent cells. The shaded region represents the standard error of the mean (n=6). Stimuli were presented after 30 s of imaging in each case, and the time of stimulus presentation is indicated by the vertical cyan line. […] All stimuli were delivered with a pulse width of 250 ms to a circular area of diameter 5 μm at a power ranging from 3.2×10^2 W cm^−2 to 5.1×10^2 W cm^−2. For all plots, the cyan line indicates the time of stimulus presentation. Controls and experimental groups were imaged and stimulated on the same day using the same conditions and with the same batch of cells. Error bars in the bar graphs represent the standard deviation of the mean of n=3 experiments (at least 6 stimulated cells per experiment). Statistical analyses were performed using a one-tailed Welch's t-test. * P-value<0.05, ** P-value<0.01, *** P-value<0.001, **** P-value<0.0001.
Imaging was conducted in imaging extracellular buffer (iECB; 119 mM NaCl, 5 mM KCl, 10 mM HEPES, 2 mM CaCl2, 1 mM MgCl2 (pH 7.2); 320 mOsm). Imaging in calcium-free medium was conducted in phosphate-buffered saline. Cells were prepared for imaging by seeding a 35 mm Ibidi imaging dish with ~50,000 cells in 1 mL of DMEM, and grown at 37 °C, 5% CO2 for 2 days. Prior to imaging, cells were incubated with dyes and/or molecules resuspended in complete growth medium at the appropriate concentration (MM 1 (8 μM), MM 2 (8 μM), MM 3 (24 μM), MM 4 (8 μM), Fluo-4 (2 μM)). MM and Fluo-4 were loaded into cells for 45 min. Cells treated with thapsigargin were exposed for 30 min after MM and Fluo-4 loading. Cells treated with organelle-targeting dyes were exposed for 5 min after MM loading. Ruthenium red and Gd^3+ were included in the imaging medium during stimulation and were associated with cells for 10 min prior to imaging. At the end of incubation, this medium was replaced with the iECB. Unless otherwise specified, all experiments were replicated in triplicate.
Pharmacological Experiments: In pharmacological blocking experiments, cells were loaded with MM and Fluo-4 as previously described. Typical imaging experiments in previously described extracellular buffer were then conducted as a positive control. Then, the imaging buffer was replaced, and the cells were treated as required for each experiment. After a brief recovery period, the cells were imaged again, and six different cells were stimulated. Experiments in calcium-free imaging buffer used phosphate buffered saline. Thapsigargin (Th: 1 μM) and Cytochalasin D (Cyto D; 2 μM) were incubated with cells in complete growth medium for 1 h (Th) or 2 h (Cyto D) before imaging. Ruthenium red (RR; 1 μM), gadolinium (Gd; 50 μM), ryanodine (Ry; 100 μM), xestospongin C (XeC; […]), and U-73122 (U-73; 10 μM) were administered directly into the imaging medium. Cells were incubated in the medium for ~5 min prior to imaging. Traces presented are representative results across at least six cells from single experiments, while bar graphs represent the average results across at least three distinct experiments.

In data set [2] the test system is C2C12 myoblasts. As to the kind of experiment: Localization of MM 1 in C2C12 cells. Format: cell-based, mouse. The conditions noted are these: 45 minutes of incubation.
Data set [3] has as its system C2C12 myotubes. As to the kind of experiment: C2C12 myotube contraction (image subtraction). Format: cell-based, mouse. The conditions noted are these: 400-nm light 1.5 s, image subtraction. Here is the method: FIG. 35—Flow chart for the image subtraction process. First, the background is subtracted from the traces to account for drift during the course of the experiment (top row). After this, the traces are zeroed at the point of stimulation, and the area is calculated from the point of stimulation until the end of the experiment to yield the contraction magnitude. (bottom row).
FIGS. 40A-40D—MMs induce contraction in C2C12 myotubes, a) Confocal microscopy images of Fluo-4 and b) image subtraction of brightfield images to highlight calcium release and contractile motion in three stimulated myotubes (indicated by the red arrows) immediately before stimulation (t=0) for 1.5 s with 400-nm light, as well as 10 s and 120 s after stimulation. Scale bar=30 μm. c) Magnitude of contraction of MM 1 compared to DMSO, MM 2, MM 3, and cells treated with 10 μM U-73122. d) Mechanism of skeletal muscle cell contraction.
This method yielded images where the pixel intensity corresponds to movement over the course of the experiment (FIG. 40C), allowing us to easily visualize and quantify contraction.

For data set [4] the following is noted: cited from earlier work.
Data set [5] concerns C2C12 myoblasts. As to the kind of experiment: ROS generation (CellROX green) in C2C12 myoblasts. Format: cell-based, mouse. The conditions noted are these: MM 1 + light. The method, then:
Additionally, to further confirm that the cellular calcium release is not the result of a photodynamic effect caused by reactive oxygen species (ROS) generation, ROS generation was measured from each MM using the ROS sensitive dye CellROX green. CellROX fluoresces when oxidized by ROS in living cells and can be used to measure general oxidative stress in cells due to ROS generation. […] To confirm that the ROS generated by MM 1 was not causing intracellular calcium release, cells were treated with a combination of thiourea (TU, 50 mM) and [COMPOUND LEFT OUT] (SA, 1.25 mM) to scavenge the ROS that were produced. […] If ROS generation by MM 1 was the cause of calcium release, then less calcium release would be expected with treatment of ROS scavengers.

Data on three compounds can be found in patent US20260373497A1, “MOLECULAR MACHINES STIMULATE INTERCELLULAR CALCIUM WAVES AND CAUSE MUSCLE CONTRACTION” (William Marsh Rice University, priority 2022, published 2026).

Values joined by “and” are separate entries in the source; they are usually repeats but may differ in a detail not shown here. Identical values can stand only once.

On to `CC1Cc2ccc3ccccc3c2C1=C1c2ccccc2Sc2cc(NCCN(C)C)ccc21` (centres unmarked) [MM 1], for which, in data set [1], the “Calcium response amplitude in absence of extracellular calcium” value is “showed no differences in response amplitude compared to a positive control in calcium-containing medium”. Further, the Cell permeation result in data set [2] is recorded as “permeate through the cell membrane after 45 minutes of incubation”. Also, the Myotube contraction entry in data set [3] is reported as “strong contraction in C2C12 myotubes”. In addition, the Rotation rate in data set [4] is ~ 3 MHz and 3 MHz. For the same compound, the ROS generation result in data set [5] (CellROX green) was “generated more ROS than the DMSO negative control but less ROS than positive controls”. Also, the “ROS generation with scavenger combination” value in data set [5] (with thiourea-containing scavenger combination (1× and 0.2×)) is given as “decrease in ROS generation”.

Take `CC1Cc2cc(NCCN(C)C)c3ccccc3c2C1=C1c2ccccc2-c2ccccc21` (centres unmarked) [MM 3]: in data set [3], the Myotube contraction result is “Strong cellular contraction did not occur”.

On to `CN(C)CCNc1ccc2c(c1)Sc1ccccc1C2=C1CCc2ccc3ccccc3c21` [MM 4], for which, in data set [4], the Rotation rate was 3 MHz.
